For one experiment, the target named is T1, human RORγt (Homo sapiens, UniProt P51449).
T1 construct: the full-length cDNA of human RORγt; expressed in transfected cells; host or cells: COS-7 (monkey kidney)
T1 sequence (P51449 1-497 isoform P51449-2): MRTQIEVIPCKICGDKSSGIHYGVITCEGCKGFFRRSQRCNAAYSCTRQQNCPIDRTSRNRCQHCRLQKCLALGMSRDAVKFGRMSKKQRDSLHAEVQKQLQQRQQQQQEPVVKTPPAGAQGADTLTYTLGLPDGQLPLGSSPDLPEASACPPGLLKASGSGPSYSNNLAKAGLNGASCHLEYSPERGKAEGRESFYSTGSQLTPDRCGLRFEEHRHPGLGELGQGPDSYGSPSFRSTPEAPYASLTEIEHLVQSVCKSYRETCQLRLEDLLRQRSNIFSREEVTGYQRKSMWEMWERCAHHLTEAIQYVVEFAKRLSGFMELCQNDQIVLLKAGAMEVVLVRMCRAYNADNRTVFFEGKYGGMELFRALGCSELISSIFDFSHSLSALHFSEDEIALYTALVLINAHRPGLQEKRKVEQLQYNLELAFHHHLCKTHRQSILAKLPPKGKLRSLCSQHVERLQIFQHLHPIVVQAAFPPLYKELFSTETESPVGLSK
Put plainly: RORE Luciferase/RORγt transactivation assay. It counts as cell-based. As to conditions: COS-7 cells, human IL-17 promoter reporter + RORγt plasmid, 20 h; read-out: IC50, inhibition of RORγt activity (luciferase). As to the method: It is well known that RORγ binds to a conserved non-coding sequence (CNS) enhancer element in the IL-17 promoter.
Culture medium was changed every 2 days.
The 4.3 Kb human IL-17 promoter containing the RORγ-specific CNS enhancer element was PCR amplified from human genomic DNA and cloned into a pGL3-TKLuc2Cp reporter plasmid.
The luciferase reporter plasmid and the RORγt overexpression plasmid were transfected into COS-7 cell line using 4 μLJetPEITM/μg of DNA. Briefly, 150 ng of DNA (ration ½ between RORE-Tk Luc2Cp and cDNA RORγt or the empty vector for the negative control) was served to transfect adherent COS-7 cells in a […] culture flask, in complete medium (see cos-7 cell line culture).
Cells were then detached (using trypsin) and washed by centrifugation at 300 g for 10 minutes. Cell pellet was resuspended in serum free/phenol red free DMEM and seeded in 384 well plates at a density of 10000 cells/well and then incubated for 4h at 37° C.
Compounds were dissolved in 100% DMSO to obtain 10 mM stock solutions. For each compound, test concentrations were diluted in serum free/phenol red free DMEM using the Genesis Freedom 200™ (TECAN) and added to the cells to obtain a 0.3% DMSO final concentration (in a final volume of 40 μL per well).
The luciferase activity was then measured with 40 μL/well steady-Glo Luciferase assay system (Promega, Madison, WI) and after incubation at room temperature for 30 minutes. The luminescence was estimated using the Ultra384 reader (TECAN). Data were collected and analyzed using GraphPad Prism software (GraphPad Software V5.02, San Diego California USA). IC50 in μM and Emax in % were reported for each compound.

Experiment [1] addresses T2, RORγt ligand-binding domain (RORγt-LBD) (Homo sapiens, UniProt P51449).
T2 construct: 20 nM recombinantly expressed RORγ-LBD fused to GST
T2 sequence (P51449 269-508 limits assumed): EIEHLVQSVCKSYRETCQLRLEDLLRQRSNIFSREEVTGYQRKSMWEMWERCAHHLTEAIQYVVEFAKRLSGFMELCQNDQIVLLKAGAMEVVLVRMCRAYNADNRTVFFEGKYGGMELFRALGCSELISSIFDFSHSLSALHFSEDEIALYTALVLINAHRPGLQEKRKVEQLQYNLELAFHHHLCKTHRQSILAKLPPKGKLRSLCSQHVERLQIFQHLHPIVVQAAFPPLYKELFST
Briefly: Time-resolved FRET (TR-FRET) RORγt coactivator assay. Type of experiment: biochemical. As to conditions: GST-RORγ-LBD, biotinylated RIP140 peptide, 2 hours; read-out: IC50, coactivator displacement. The text has this:
Time-resolved FRET (TR-FRET) RORγt coactivator assay was used to identify RORγ modulator compounds with ligand-dependent coactivator displacement. The assay uses a d2-labeled anti-GST antibody, synthetic N-terminally biotinylated peptide which is derived from nuclear receptor coactivator protein RIP140, and a RORγt ligand-binding domain (RORγt-LBD) that is tagged with glutathione-S-transferase (GST). The influence of compounds on the RORγ-peptide interaction relies on the binding dependent energy transfer from a donor to an acceptor fluorophor attached to the binding partner of interest. […] For reduction of background from compound fluorescence, TR-FRET method makes use of generic fluorophore labels and time resolved detection.
The assays were done in a final volume of 20 μl in a 384 well plate in a CHAPS buffer (2 mM CHAPS; 1 mM DTT, 2 mM EDTA; 0.1% BSA), containing 20 nM recombinantly expressed RORγ-LBD fused to GST, 30 nM N-terminally biotinylated peptide, 1 nM streptavidin-terbium conjugate and 20 nM d2 labeled-anti-GST. Test compounds were diluted using 10 mM stock solution. The range of the final compound concentrations used in this test was from 0.3 nM to 30 μM (logarithmic scale). DMSO content of the samples was kept at 1%. The assay was equilibrated for 2 hours in the dark at room temperature in 384 well plates (Falcon). The signal was detected by an Ultra384 reader (TECAN). […] Compounds that promote coactivator displacement induce a concentration-dependent decrease in time-resolved fluorescent signal. Data were collected and analyzed using GraphPad Prism software (GraphPad Software V5.02, San Diego California USA). IC50 in μM and Emax in % were reported for each compound.
On the technique in general: TR-FRET usually uses a lanthanide donor and a delayed reading to cut background.

The conditions of experiment [2]: administered by injection; cited from earlier work.
The conditions of experiment [3]: administered by injection; cited from earlier work. The source holds these as a separate data set.
The conditions of experiment [4]: cited from earlier work.

As usually defined, the IC50 is the concentration needed to halve the response being measured.

Where only a bound is given, the exact number is not on record here.

On to `CC(=O)N1CCN(c2ncc(C3(C(=O)NC(c4ccc(C)o4)c4ccc(C)cc4N4CCCCC4)CC3)cn2)CC1` (stereo not shown) [Cpd.11, 1-[2-(4-acetylpiperazin-1-yl)pyrimidin-5-yl]-N-{[4-methyl-2-(piperidin-1-yl)phenyl](5-methylfuran-2-yl)methyl}cyclopropane-1-carboxamide], for which the IC50 (at human RORγt; in experiment [1]) was less than 100 nM throughout. For `CC(=O)N1CCN(c2cccc(CC(=O)NC(c3ccc(C)o3)c3ccc(C)cc3N3CCCCC3)n2)CC1` (stereo not shown) [Cpd.12, 2-[6-(4-acetylpiperazin-1-yl)pyridin-2-yl]-N-{[4-methyl-2-(piperidin-1-yl)phenyl](5-methylfuran-2-yl)methyl}acetamide], the IC50 (at human RORγt; in experiment [1]) was less than 100 nM in each case. For the molecule `CC(=O)N1CCN(c2ncc(CC(=O)NC(c3ccc(C)o3)c3ccc(C)cc3N3CCCCC3)cn2)CC1` (stereo not shown) [Cpd.13, 2-[2-(4-acetylpiperazin-1-yl)pyrimidin-5-yl]-N-{[4-methyl-2-(piperidin-1-yl)phenyl](5-methylfuran-2-yl)methyl}acetamide], the IC50 on human RORγt is 100 to 1000 nM; in experiment [1], less than 100 nM. The matching figures for `CC(=O)N1CCN(c2cncc(CC(=O)NC(c3ccc(C)o3)c3ccc(C)cc3N3CCCCC3)c2)CC1` (stereo not shown) [Cpd.14, 2-[5-(4-acetylpiperazin-1-yl)pyridin-3-yl]-N-{[4-methyl-2-(piperidin-1-yl)phenyl](5-methylfuran-2-yl)methyl}acetamide]: 100 to 1000 nM and less than 100 nM.

In the case of `CC(=O)N1CCN(c2nccc(CC(=O)NC(c3ccc(C)o3)c3ccc(C)cc3N3CCCCC3)n2)CC1` (stereo not shown) [Cpd.15, 2-[2-(4-acetylpiperazin-1-yl)pyrimidin-4-yl]-N-{[4-methyl-2-(piperidin-1-yl)phenyl](5-methylfuran-2-yl)methyl}acetamide], the results for the IC50 (on human RORγt; in experiment [1]) were 100 to 1000 nM and less than 100 nM, respectively. `Cc1ccc(C(NC(=O)Cc2cccc(N3CCN(C(=O)C(F)(F)F)CC3)n2)c2ccc(C)o2)c(N2CCCCC2)c1` (stereo not shown) [Cpd.16, N-{[4-methyl-2-(piperidin-1-yl)phenyl](5-methylfuran-2-yl)methyl}-2-{6-[4-(trifluoroacetyl)piperazin-1-yl]pyridin-2-yl}acetamide]: the 50% inhibitory concentration (IC50) (at human RORγt; in experiment [1]) was 100 to 1000 nM each time.

Take `Cc1ccc(C(NC(=O)Cc2cnc(N3CCCC(S(C)(=O)=O)C3)nc2)c2ccc(C)o2)c(N2CCCCC2)c1` (stereo not shown) [Cpd.17, 2-[2-(3-methanesulfonylpiperidin-1-yl)pyrimidin-5-yl]-N-{[4-methyl-2-(piperidin-1-yl)phenyl](5-methylfuran-2-yl)methyl}acetamide]: the IC50 (on human RORγt; in experiment [1]) was less than 100 nM in each case.

As for `CC(=O)Nc1nc(C)c(S(=O)(=O)Nc2ccc(C(O)(C(F)(F)F)C(F)(F)F)cc2)s1` [SR1001], in experiment [2], the “efficacy in multiple sclerosis model” value was “efficacious”. Turning to `Cc1ccc([C@@H](NC(=O)Cc2ccc3oc([C@@H](O)c4c(C)noc4C)cc3c2)c2ccccc2)c(C)c1` [TMP778], the “efficacy in psoriasis model” value in experiment [3] is “efficacious”. `CCS(=O)(=O)c1ccc(CNC(=O)c2cnc3c(c2)CN(C[C@H]2CC[C@H](C(F)(F)F)CC2)[C@H]3C(C)C)nc1` [VTP-43742]: the “reduction in the Psoriasis Area Severity Index (PASI) score relative to placebo” value in experiment [4] (350 mg dose group) was 24%. Besides, the “placebo-adjusted PASI score reduction” value in experiment [4] (700 mg dose group) is 30%. Also, the “plasma IL-17 levels relative to placebo” value in experiment [4] (patients with moderate to severe psoriasis) is listed as “reduced”.
